Results from patent US8895585B2, “Nicotinamide derivative or salt thereof” (FUJIFILM Corporation, priority 2010, dated 2014).

Legend:
[1] = target: T1, glutathione S-transferase (GST)-fused full-length human Syk protein (Homo sapiens, UniProt P43405); experiment: Syk enzyme assay; assay type: biochemical; conditions: Syk enzyme assay, Test Example 1; read-out: IC50 of Syk-inhibitory activity
T1 construct: (GST)-fused full-length human Syk protein; GST (glutathione S-transferase); purchased Carna Biosciences
How it was run: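 IC50 values come from a time-resolved FRET readout (615 and 665 nm) of substrate phosphorylation, measured after an EDTA stop and 1 h antibody binding. The kinase reaction ran 40 min at room temperature with 27 μM ATP and 0.4 μM biotin-peptide, following a 15 min compound preincubation with baculovirus-made GST-full-length human Syk.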

THP-1 cells = experiment: TNFα generation assay; assay type: cell-based, human; conditions: Homo sapiens, THP-1, THP-1 cells; Table 22; read-out: IC50 in TNFα generation assay
How it was run: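 Secreted TNFα in supernatant quantified by ELISA or AlphaLISA after 7 h culture on human IgG-coated wells (10 μg/ml coating). Cells were IFN-γ-differentiated THP-1 (10 ng/ml, 2 days), exposed to compound for 30 min at room temperature before plating.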

IC50 [1] [nM]	IC50 (THP-1 cells) [nM]	SMILES
< 10	65 to 130	CCC[C@@H](Nc1nc(Nc2cnc(C)c(-n3nccn3)c2)c(C(N)=O)cc1F)[C@H](C)N [Example 006-252, 6-(((2S,3R)-2-aminohexan-3-yl)amino)-5-fluoro-2-((6-methyl-5-(2H-1,2,3-triazol-2-yl)pyridin-3-yl)amino)nicotinamide]
10 to 50	130 to 200	CCC[C@@H](Nc1nc(Nc2cnc(OC)c(-n3nccn3)c2)c(C(N)=O)cc1F)[C@H](C)N [Example 006-253, 6-(((2S,3R)-2-aminohexan-3-yl)amino)-5-fluoro-2-((6-methoxy-5-(2H-1,2,3-triazol-2-yl)pyridin-3-yl)amino)nicotinamide]
< 10	65 to 130	CC[C@@H](Nc1nc(Nc2cncc(C3CC3)c2)c(C(N)=O)cc1F)[C@H](C)N [Example 006-255, 6-(((2S,3R)-2-aminopentan-3-yl)amino)-2-((5-cyclopropylpyridin-3-yl)amino)-5-fluoronicotinamide]
< 10	65 to 130	CC[C@@H](Nc1nc(Nc2ccnc(-c3ccco3)c2)c(C(N)=O)cc1F)[C@H](C)N [Example 006-256, 6-(((2S,3R)-2-aminopentan-3-yl)amino)-5-fluoro-2-((2-(furan-2-yl)pyridin-4-yl)amino)nicotinamide]
50 to 100	130 to 200	CC[C@@H](Nc1nc(Nc2cccc3cccnc23)c(C(N)=O)cc1F)[C@H](C)N [Example 006-258, 6-(((2S,3R)-2-aminopentan-3-yl)amino)-5-fluoro-2-((quinolin-8-yl)amino)nicotinamide]
< 10	< 65	CC[C@@H](Nc1nc(Nc2cnc3cc(OCCOC)ccc3c2)c(C(N)=O)cc1F)[C@H](C)N [Example 006-259, 6-(((2S,3R)-2-aminopentan-3-yl)amino)-5-fluoro-2-((7-(2-methoxyethoxy)quinolin-3-yl)amino)nicotinamide]
< 10	< 65	CC[C@@H](Nc1nc(Nc2ccc3nccnc3c2)c(C(N)=O)cc1F)[C@H](C)N [Example 006-260, 6-(((2S,3R)-2-aminopentan-3-yl)amino)-5-fluoro-2-((quinoxalin-6-yl)amino)nicotinamide]
< 10	< 65	CC[C@@H](Nc1nc(Nc2ccc3cccnc3c2)c(C(N)=O)cc1F)[C@H](C)N [Example 006-261, 6-(((2S,3R)-2-aminopentan-3-yl)amino)-5-fluoro-2-((quinolin-7-yl)amino)nicotinamide]
< 10	< 65	CC[C@@H](Nc1nc(Nc2cncc3ccccc23)c(C(N)=O)cc1F)[C@H](C)N [Example 006-262, 6-(((2S,3R)-2-aminopentan-3-yl)amino)-5-fluoro-2-((isoquinolin-4-yl)amino)nicotinamide]
< 10	< 65	CC[C@@H](Nc1nc(Nc2cnc3ccc(OC)cc3c2)c(C(N)=O)cc1F)[C@H](C)N [Example 006-264, 6-(((2S,3R)-2-aminopentan-3-yl)amino)-5-fluoro-2-((6-methoxyquinolin-3-yl)amino)nicotinamide]
10 to 50	130 to 200	CC[C@@H](Nc1nc(Nc2ccc(N3CCOCC3)nc2)c(C(N)=O)cc1F)[C@H](C)N [Example 006-265, 6-(((2S,3R)-2-aminopentan-3-yl)amino)-5-fluoro-2-((6-morpholinopyridin-3-yl)amino)nicotinamide]
< 10	< 65	CC[C@@H](Nc1nc(Nc2ccnc(OC)c2)c(C(N)=O)cc1F)[C@H](C)N [Example 006-266, 6-(((2S,3R)-2-aminopentan-3-yl)amino)-5-fluoro-2-((2-methoxypyridin-4-yl)amino)nicotinamide]
< 10	< 65	CC[C@@H](Nc1nc(Nc2cc(OC)nc(OC)c2)c(C(N)=O)cc1F)[C@H](C)N [Example 006-267, 6-(((2S,3R)-2-aminopentan-3-yl)amino)-2-((2,6-dimethoxypyridin-4-yl)amino)-5-fluoronicotinamide]
< 10	< 65	CC[C@@H](Nc1nc(Nc2cccc3c2cnn3C)c(C(N)=O)cc1F)[C@H](C)N [Example 006-268, 6-(((2S,3R)-2-aminopentan-3-yl)amino)-5-fluoro-2-((1-methyl-1H-indazol-4-yl)amino)nicotinamide]
10 to 50	65 to 130	CC[C@@H](Nc1nc(Nc2cncc(F)c2)c(C(N)=O)cc1F)[C@H](C)N [Example 006-269, 6-(((2S,3R)-2-aminopentan-3-yl)amino)-5-fluoro-2-((5-fluoropyridin-3-yl)amino)nicotinamide]
< 10	< 65	CC[C@@H](Nc1nc(Nc2ccc3nc(OCCOC)ccc3c2)c(C(N)=O)cc1F)[C@H](C)N [Example 006-271, 6-(((2S,3R)-2-aminopentan-3-yl)amino)-5-fluoro-2-((2-(2-methoxyethoxy)quinolin-6-yl)amino)nicotinamide]
10 to 50	65 to 130	CC[C@@H](Nc1nc(Nc2cnc(C)c(C3CC3)c2)c(C(N)=O)cc1F)[C@H](C)N [Example 006-272, 6-(((2S,3R)-2-aminopentan-3-yl)amino)-2-((5-cyclopropyl-6-methylpyridin-3-yl)amino)-5-fluoronicotinamide]
< 10	65 to 130	CCCC[C@H](CN)Nc1nc(Nc2ccc3ncccc3c2)c(C(N)=O)cc1F [Example 006-274, (R)-6-((1-aminohexan-2-yl)amino)-5-fluoro-2-(quinolin-6-ylamino)nicotinamide]
< 10	< 65	C[C@H](N)[C@@H](C)Nc1nc(Nc2ccc3ncccc3c2)c(C(N)=O)cc1F [Example 006-275, 6-(((2R,3S)-3-aminobutan-2-yl)amino)-5-fluoro-2-((quinolin-6-yl)amino)nicotinamide]
< 10	< 65	CC[C@@H](Nc1nc(Nc2cncc(-c3cccc(OC)c3)c2)c(C(N)=O)cc1F)[C@H](C)N [Example 006-276, 6-(((2S,3R)-2-aminopentan-3-yl)amino)-5-fluoro-2-((5-(3-methoxyphenyl)pyridin-3-yl)amino)nicotinamide]
< 10	65 to 130	CC[C@@H](Nc1nc(Nc2cncc(-c3ccc(OC)cc3)c2)c(C(N)=O)cc1F)[C@H](C)N [Example 006-277, 6-(((2S,3R)-2-aminopentan-3-yl)amino)-5-fluoro-2-((5-(4-methoxyphenyl)pyridin-3-yl)amino)nicotinamide]
< 10	65 to 130	CC[C@@H](Nc1nc(Nc2cncc(-c3ccc(OC)cc3F)c2)c(C(N)=O)cc1F)[C@H](C)N [Example 006-279, 6-(((2S,3R)-2-aminopentan-3-yl)amino)-5-fluoro-2-((5-(2-fluoro-4-methoxyphenyl)pyridin-3-yl)amino)nicotinamide]
< 10	< 65	CC[C@@H](Nc1nc(Nc2ccnc(-c3cccc(OC)c3F)c2)c(C(N)=O)cc1F)[C@H](C)N [Example 006-281, 6-(((2S,3R)-2-aminopentan-3-yl)amino)-5-fluoro-2-((2-(2-fluoro-3-methoxyphenyl)pyridin-4-yl)amino)nicotinamide]
< 10	< 65	Cn1ncc2cc(Nc3nc(N[C@@H](CN)CC4CC4)c(F)cc3C(N)=O)ccc21 [Example 006-282, (R)-6-((1-amino-3-cyclopropylpropan-2-yl)amino)-5-fluoro-2-((1-methyl-1H-indazol-5-yl)amino)nicotinamide]
